Our source for the EC50 values is EP4596536A1 (Shanghai de Novo Pharmatech Co., Ltd., priority 2022, dated 2024).

The target of the assay is T1, TLR8 (Homo sapiens, UniProt Q9NR97).
T1 construct: host or cells: HEK293 (HEK-BLUE-hTLR8)
T1 sequence (Q9NR97 27-1041): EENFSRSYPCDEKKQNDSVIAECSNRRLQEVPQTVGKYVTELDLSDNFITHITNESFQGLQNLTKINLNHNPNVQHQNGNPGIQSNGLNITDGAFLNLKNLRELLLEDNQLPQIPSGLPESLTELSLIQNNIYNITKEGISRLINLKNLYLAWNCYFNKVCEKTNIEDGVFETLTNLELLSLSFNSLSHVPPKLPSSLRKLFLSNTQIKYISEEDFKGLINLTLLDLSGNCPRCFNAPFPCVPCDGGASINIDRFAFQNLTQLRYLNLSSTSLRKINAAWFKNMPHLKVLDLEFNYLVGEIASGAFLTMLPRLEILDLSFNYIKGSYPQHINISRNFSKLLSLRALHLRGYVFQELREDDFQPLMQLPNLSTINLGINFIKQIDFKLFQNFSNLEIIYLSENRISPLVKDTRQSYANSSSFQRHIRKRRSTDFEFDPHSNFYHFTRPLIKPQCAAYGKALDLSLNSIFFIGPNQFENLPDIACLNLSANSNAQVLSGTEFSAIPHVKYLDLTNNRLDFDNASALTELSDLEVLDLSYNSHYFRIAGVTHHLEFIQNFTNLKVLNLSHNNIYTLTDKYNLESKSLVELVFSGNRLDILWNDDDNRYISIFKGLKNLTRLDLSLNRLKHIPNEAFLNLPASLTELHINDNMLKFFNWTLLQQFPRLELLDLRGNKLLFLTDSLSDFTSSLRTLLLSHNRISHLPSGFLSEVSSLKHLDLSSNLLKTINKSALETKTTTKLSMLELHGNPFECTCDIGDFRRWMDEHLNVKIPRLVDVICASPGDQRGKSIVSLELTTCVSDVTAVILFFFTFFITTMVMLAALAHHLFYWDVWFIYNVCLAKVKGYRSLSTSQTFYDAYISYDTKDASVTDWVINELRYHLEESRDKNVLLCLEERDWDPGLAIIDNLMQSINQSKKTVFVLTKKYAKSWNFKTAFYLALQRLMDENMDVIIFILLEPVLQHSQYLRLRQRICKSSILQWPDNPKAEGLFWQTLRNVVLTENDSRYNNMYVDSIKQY
The experiment in a line: HEK-BLUE-hTLR8 cell SEAP reporter assay (Quanti-Blue). As to conditions: HEK-BLUE-hTLR8 cells, 0.5 nM to 15 µM, 24 hours. Type of assay: cell-based. The procedure: In this experiment, the biological activity of TLR7 and TLR8 in the compound of formula I was detected using cell tests. This method was conducted in human embryonic kidney cells (HEK293) expressing TLR family members such as TLR4, TLR7, TLR8 or TLR9. TLR agonists activate TLRs, triggering the activation of downstream NF-kB, which in turn activates the secreted embryonic alkaline phosphatase (SEAP) reporter gene. The activity of SEAP was detected using the Quanti-Blue (InvivoGen) reagent, thereby reflecting the activities of TLR7 and TLR8 agonists.
The detailed experimental method was as follows: HEK-BLUE-hTLR7 and HEK-BLUE-hTLR8 cell lines were purchased from Invivogen Company and cultured in DMEM medium containing 4.5 g/L glucose (Sigma-Aldrich) and 10% fetal bovine serum under the conditions of temperature 37°C, humidity 95% and 5% CO2.
The compound was tested at a concentration ranging from 0.5 nM to 15 µM over a total of 10 concentration gradients. TLR7 or TLR8 agonists with known activity were added as positive controls, and 1 µL of DMSO was added as a negative control.
The cells were treated as follows: the cells were removed from the culture dish and centrifuged to remove the medium, and resuspended in a T-150 bottle with 10 mL of preheated PBS, 12 mL of preheated medium was added, and the cells were gently pipetted up and down and counted under a microscope. A 200,000/mL single-cell suspension was immediately prepared with medium and added to a 96-well plate at 200 µL/well (40,000/well). The final concentration of DMSO was 0.5%.
The compound was added and incubated in an incubator at 37°C, 5% CO2 for 24 hours.
A supernatant at 20 µL/well was aspirated into 180 µL of preheated Quanti-Blue at 37°C, incubated at 37°C for 1.5 hours, and detected for the absorbance (OD value) with a spectrophotometer at 650 nm. The formula for calculating the agonistic effect is as follows:
Effect % = (average OD value of the drug-administered group - average OD value of the DMSO group) / (average OD value of the positive drug group - average OD value of the DMSO group) × 100
Graphpad software was used to fit the concentration-effect curve, and EC50 was calculated. The test results are shown in Table 15 (A denotes < 250 nM, B denotes 250 nM-1 µM, C denotes 1 µM-2 µM, D denotes > 2 µM, and - denotes not listed or not tested): Table 15
As a reminder, the EC50 is the concentration needed to bring the measured effect to its halfway point. Low readings indicate a more potent agent, high ones a less potent agent. On to `CCCN(CCO)C(=O)C1=Cc2ccc(C3(C(=O)Nc4cnc5c(c4)CN(C(=O)CCOCCOCCOCCOCCOCCOCCNC(=O)[C@H](CCCNC(N)=O)NC(=O)[C@@H](NC(=O)CCCCCN4C(=O)C=CC4=O)C(C)C)CC5)CC3)cc2N=C(N)C1` [II-18, 2-amino-8-(1-((6-((24S,27S)-34-(2,5-dioxo-2,5-dihydro-1H-pyrrol-1-yl)-27-isopropyl-23,26,29-trioxo-24-(3-ureidopropyl)-4,7,10,13,16,19-hexaoxa-22,25,28-triazatetratriacontanacyl)-5,6,7,8-tetrahydro-1,6-naphthyridin-3-yl)carbamoyl)cyclopropyl)-N-(2-hydroxyethyl)-N-propyl-3H-benzo[b]azepine-4-formamide], for which the EC50 fell in the range of 250 to 1000 nM.

In turn, `CCCN(CCO)C(=O)C1=Cc2c(F)cc(C3(C(=O)Nc4cncc(CN)c4)CC3)cc2N=C(N)C1` [Compound 12, 2-amino-8-(1-((5-(aminomethyl)pyridin-3-yl)carbamoyl)cyclopropyl)-6-fluoro-N-(2-hydroxyethyl)-N-propyl-3H-benzo[b]azepine-4-formamide] came in with an EC50 below 250 nM.

In turn, `CCCN(CCOP(=O)(N[C@@H](C)C(=O)OCc1ccccc1)Oc1ccccc1)C(=O)C1=Cc2ccc(C3(C(=O)Nc4cnc5c(c4)CNCC5)CC3)cc2N=C(N)C1` (single isomer, unassigned) [Compound 25-1] returned an EC50 below 250 nM.

Molecule `CCCN(CCC)C(=O)C1=Cc2c(F)cc(C3(C(=O)Nc4cncc(CN)c4)CC3)cc2N=C(N)C1` [Compound 13, 2-amino-8-(1-((5-(aminomethyl)pyridin-3-yl)carbamoyl)cyclopropyl)-6-fluoro-N,N-dipropyl-3H-benzo[b]azepine-4-formamide] came in with an EC50 below 250 nM.

As to `CCCN(CCO)C(=O)C1=Cc2ccc(C3(C(=O)Nc4cnc5c(c4)CN(C(=O)OCc4ccc(NC(=O)[C@H](CCCNC(N)=O)NC(=O)[C@@H](NC(=O)C6COC(CN7C(=O)C=CC7=O)OC6)C(C)C)cc4)CC5)CC3)cc2N=C(N)C1` (stereo partly shown) [II-98], the EC50 lay in the range of 250 to 1000 nM.

For the molecule `CCCN(CCO)C(=O)C1=Cc2ccc(C3(C(=O)NCc4ccc(N)cc4)CC3)cc2N=C(N)C1` [Compound 17, 2-amino-8-(1-((4-aminobenzyl)carbamoyl)cyclopropyl)-N-(2-hydroxyethyl)-N-propyl-3H-benzo[b]azepine-4-formamide], the 50% effective concentration (EC50) is below 250 nM.

In the case of `CCCN(CCO)C(=O)C1=Cc2ccc(C3(C(=O)Nc4cnc5c(c4)CN(C(=O)OCc4ccc(NC(=O)CCOCCOCCNC(=O)CCN6C(=O)C=CC6=O)cc4)CC5)CC3)cc2N=C(N)C1` [II-28, 4-(3-(2-(2-(3-(2,5-dioxo-2,5-dihydro-1H-pyrrol-1-yl)propionylamino)ethoxy)ethoxy)propionylamino)benzyl 3-(1-(2-amino-4-((2-hydroxyethyl)(propyl)carbamoyl)-3H-benzo[b]azepin-8-yl)cyclopropane-1-formylamino)-7,8-dihydro-1,6-naphthyridine-6(5H)-carboxylate], the 50% effective concentration (EC50) lay in the range of 250 to 1000 nM.

Molecule `CCCN(CCO)C(=O)C1=Cc2ccc(C3(C(=O)Nc4cccc(N)c4)CC3)cc2N=C(N)C1` [Compound 19, 2-amino-8-(1-((3-aminophenyl)carbamoyl)cyclopropyl)-N-(2-hydroxyethyl)-N-propyl-3H-benzo[b]azepine-4-formamide] registered a 50% effective concentration (EC50) below 250 nM.

`CCCN(CCC)C(=O)C1=Cc2ccc(C3(C(=O)Nc4ccc5c(c4)CNCC5)CC3)cc2N=C(N)C1` [Compound 15, 2-amino-N,N-dipropyl-8-(1-((1,2,3,4-tetrahydroisoquinolin-7-yl)carbamoyl)cyclopropyl)-3H-benzo[b]azepine-4-formamide] had an EC50 below 250 nM.

Consider `CCCN(CCO)C(=O)C1=Cc2ccc(C3(C(=O)Nc4cnc5c(c4)CN(C(=O)CNC(=O)CCOCCOCCNC(=O)CN4C(=O)C=CC4=O)CC5)CC3)cc2N=C(N)C1` [II-46, 2-amino-8-(1-((6-(1-(2,5-dioxo-2,5-dihydro-1H-pyrrol-1-yl)-2,12-dioxo-6,9-dioxa-3,13-diazapentadecan-15-acyl)-5,6,7,8-tetrahydro-1,6-naphthyridin-3-yl)carbamoyl)cyclopropyl)-N-(2-hydroxyethyl)-N-propyl-3H-benzo[b]azepine-4-formamide], for which the EC50 was below 250 nM.

As for `CCCN(OCC)C(=O)C1=Cc2ccc(C3(C(=O)Nc4cnc5c(c4)CN(C(=O)CCOCCOCCOCCOCCOCCOCCNC(=O)CCN4C(=O)C=CC4=O)CC5)CC3)cc2N=C(N)C1` [II-66, 2-amino-8-(1-((6-(1-(2,5-dioxo-2,5-dihydro-1H-pyrrol-1-yl)-3-oxo-7,10,13,16,19,22-hexaoxa-4-azapentacosan-25-acyl)-5,6,7,8-tetrahydro-1,6-naphthyridin-3-yl)carbamoyl)cyclopropyl)-N-ethoxy-N-propyl-3H-benzo[b]azepine-4-formamide], the concentration for a half-maximal effect (EC50) lay within 250 to 1000 nM.

Regarding `CCCN(CCO)C(=O)C1=Cc2ccc(C3(C(=O)Nc4cncc(N)c4)CC3)cc2N=C(N)C1` [Compound 20, 2-amino-8-(1-((5-aminopyridin-3-yl)carbamoyl)cyclopropyl)-N-(2-hydroxyethyl)-N-propyl-3H-benzo[b]azepine-4-formamide], the concentration for a half-maximal effect (EC50) lay within 250 to 1000 nM.

On to `CCCN(CCO)C(=O)C1=Cc2ccc(C3(C(=O)NCc4cncc(N)c4)CC3)cc2N=C(N)C1` [Compound 22, 2-amino-8-(1-(((5-aminopyridin-3-yl)methyl)carbamoyl)cyclopropyl)-N-(2-hydroxyethyl)-N-propyl-3H-benzo[b]azepine-4-formamide], for which the EC50 was 250 to 1000 nM.

`CCCN(CCC)C(=O)C1=Cc2ccc(C3(C(=O)Nc4cncc(CN)c4)CC3)cc2N=C(N)C1` [Compound 16] yielded an EC50 below 250 nM.

As for `CCCN(CCO)C(=O)C1=Cc2ccc(C3(C(=O)NCc4cccc(N)c4)CC3)cc2N=C(N)C1` [Compound 18, 2-amino-8-(1-((3-aminobenzyl)carbamoyl)cyclopropyl)-N-(2-hydroxyethyl)-N-propyl-3H-benzo[b]azepine-4-formamide], the half-maximal effective concentration (EC50) is below 250 nM.

In turn, `CCCN(CCO)C(=O)C1=Cc2ccc(C3(C(=O)Nc4cnc5c(c4)CN(C(=O)CNC(=O)CCOCCOCCNC(=O)CCCNC(=O)CN4C(=O)C=CC4=O)CC5)CC3)cc2N=C(N)C1` [II-24, 2-amino-8-(1-((6-(20-(2,5-dioxo-2,5-dihydro-1H-pyrrol-1-yl)-4,14,19-trioxo-7,10-dioxa-3,13,18-triazaeicosanacyl)-5,6,7,8-tetrahydro-1,6-naphthyridin-3-yl)carbamoyl)cyclopropyl)-N-(2-hydroxyethyl)-N-propyl-3H-benzo[b]azepine-4-formamide] came in with an EC50 of 250 to 1000 nM.
